Entries after “also recorded” stand apart in the source; their conditions may differ. Ends that are not written are not given here.
Experiments:
Type in all cases: cell-based
CRH-R1 = biological target: T1, CRH-R1 (Homo sapiens, UniProt P34998); assay: ACTH suppression test using a CRH-R1 inhibitor; conditions: CRH-R1 inhibitor 10^−5 M added at the time of stimulation with CRH addition
T1 construct: it was confirmed, by analysis by the fluorescent antibody method, that ACTH positive cells were CRH-R1 positive; endogenous in cells; host or cells: pituitary tissue (ACTH-positive cells) differentiated from human iPS cells, 201B7 strain
T1 sequence (P34998 24-415): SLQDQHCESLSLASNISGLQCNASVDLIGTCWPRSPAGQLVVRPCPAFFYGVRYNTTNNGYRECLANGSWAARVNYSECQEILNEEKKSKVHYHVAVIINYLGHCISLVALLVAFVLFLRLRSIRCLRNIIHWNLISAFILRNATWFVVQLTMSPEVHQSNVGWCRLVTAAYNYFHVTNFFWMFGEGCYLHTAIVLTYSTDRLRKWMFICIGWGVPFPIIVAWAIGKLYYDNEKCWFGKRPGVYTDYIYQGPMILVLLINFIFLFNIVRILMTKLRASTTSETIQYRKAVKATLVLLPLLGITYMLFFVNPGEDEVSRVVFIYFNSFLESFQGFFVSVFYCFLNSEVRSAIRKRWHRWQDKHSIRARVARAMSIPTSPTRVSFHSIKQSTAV
Method: (§1) Human iPS cells (201B7 strain) were cultured under conditions (see column A.2) that were effective for simultaneous maturation of hypothalamus and pituitary. Pituitary tissue and hypothalamic tissue were observed on Day 60 of culture, and ACTH neurons were detected in pituitary tissue. In addition, the amount of ACTH secreted from pituitary tissue was increased by long-term culture (FIG. 19), and it was confirmed that the maturation of pituitary tissue had progressed with the lapse of culture time.
To further evaluate the function of pituitary tissue obtained by culture under the conditions in (1), an ACTH suppression test using a CRH-R1 inhibitor (Antalarmin, NBI2719) was performed (right in FIG. 23). A CRH-R1 inhibitor was added at a dose of 10^−5 M (test group) at the time of stimulation with CRH addition, and the amount of ACTH secreted was compared with that when no CRH-R1 inhibitor was added (control group). As a result of the test, the secretion of ACTH was suppressed by the CRH-R1 inhibitor (left and center in FIG. 23).

human ES cells (KhES-1) = assay: Differentiation induction of human ES cells by SFEBq method, analysed by fluorescent antibody method; conditions: Day 30 of culture
Source text: Next, it was examined whether the method can be applied also to human ES cells. Human ES cells (KhES-1) were subjected to maintenance culture by a conventional method on MEF and then used. To monitor differentiation induction into a hypothalamic tissue, KhES-1 wherein a Venus cDNA has been knocked-in into the gene of Rx which is a hypothalamic nerve marker was used. To differentiate human ES cells by Serum-Free Embryonic Body quick method (SFEBq method), human ES cells were dispersed to single cells using an enzyme by the method of Nakano et al. (Cell Stem Cell. 2012 Jun. 14; 10 (6): 771-85), and reaggregated using a low cell adhesive V-bottom 96-well plate (Sumitomo Bakelite Co., Ltd.). Ten thousand (10,000) cells were seeded per well and cultured in a gfCDM differentiation medium at 37° C. under 5% CO2. With the day of seeding defined as Day 0 of differentiation culture, 20 μM Y-27632 (ROCK inhibitor: cell death suppressor at the time of dispersion: Watanabe et al. (Nat Biotechnol. 2007 June; 25 (6): 681-6. Epub 2007 May 27.)) was added from Day 0 to Day 3, and, on and after Day 3 of culture, a half of the medium was exchanged with a differentiation medium free from Y-27632 at a frequency of once every 3 days. Based on the thought that no aggregate was formed due to nutritional deficiency, a small amount of a serum alternative KSR was added to the gfCDM to verify the effect. Specifically, the SFEBq method was performed by mixing 2%, 5%, 10%, and 20% KSR in the gfCDM medium. On and after Day 18, the oxygen partial pressure during culture was set to 40%. The differentiation of the tissue was analyzed by a fluorescent antibody method. Based on the thought that the positional shift to the telencephalon was caused by various growth factors included in KSR, the addition of a bone morphogenetic protein signal transduction pathway activating substance was decided. Specifically, differentiation induction was attempted under the following conditions. […]

[1] = tested on: AVP neurons induced from human ES cells (KhES-1); assay: KCl stimulation test of induced AVP neurons (AVP hormone by RIA method); conditions: isotonic solution containing 0.1% potassium chloride for 30 minutes; cells on Day 180 of culture
Source text: As a result of continuing suspension culture under the dorsal hypothalamus induction conditions, the expression of Otp and Brn2 (generally, Otp and Brn2 positive hypothalamus is thought to be in the precursor state of AVP neurons) was confirmed on Day 60 of culture (FIG. 6), and a small number of AVP-positive cells were observed on Day 103 of culture (FIG. 7). In order to improve the induction efficiency, the incorporation of dissociation culture, which is considered to be advantageous in neurogenesis, was decided. Specifically, differentiation induction was attempted under the following conditions. Cell aggregates were dispersed, and cells were seeded at 2×10^4 to 40×10^4 cells/cm^2 on glass plates coated with Laminin, Poly-D-Lysine and Matrigel, respectively, and subjected to plane culture in media obtained by adding NT3, BDNF, CNTF, and FBS, respectively, to a DFNB medium. Medium exchange was carried out at a frequency of once every 3 days.
As a result of differentiation induction under the above conditions, the appearance of AVP neurons was confirmed on Day 150 of culture (FIG. 8). […] First, the medium after used for cell culture for 3 days was recovered, and the AVP hormone in the medium was measured by RIA method. […]

[2] = tested on: pituitary tissue (ACTH neurons) from human iPS cells (201B7 strain); assay: ACTH stimulation test using CRH; conditions: CRH added at 5 μg/ml; pituitary tissue from human iPS cells (201B7)
Method: as §1
In order to evaluate the function of pituitary tissue obtained by culture under the conditions in (1), an ACTH stimulation test using CRH (right in FIG. 21) was performed. The test method was in accordance with the previously reported method (Ozone C et al., Functional anterior pituitary generated in self-organizing culture of human embryonic stem cells. Nat Commun. 2016 Jan. 14; 7: 10351.) (CRH was added at 5 μg/ml). […] In addition, it was confirmed, by analysis by the fluorescent antibody method, that ACTH positive cells were CRH-R1 positive (center in FIG. 21).

[3] = SAG 0.5 μM with BMP signal activating substance 1.5 to 2.0 nM from Day 6

Q: For `CCCCN(CC)c1nc(C)nc2c1c(C)c(C)n2-c1c(C)cc(C)cc1C` [Antalarmin], which “amount of ACTH secreted vs control group without CRH-R1 inhibitor” value (CRH-R1) is on record?
A: Its value is “suppressed”.

Q: Which “differentiation efficiency of hypothalamic precursor cells” value (human ES cells (KhES-1); [3]) does the source give for `CN[C@H]1CC[C@H](N(Cc2cccc(-c3ccncc3)c2)C(=O)c2sc3ccccc3c2Cl)CC1` [SAG] here?
A: Its value is “exceeded 80%”.

Q: What about the “marker expression of cell aggregates” value (human ES cells (KhES-1); [3]) of the same molecule?
A: The value was “co-positive for Rx and Pax6 and Chx10 negative”.

Q: Which “response of AVP neurons (AVP hormone secretion) to stimulation” value [1] does the source give for `[Cl-].[K+]` [potassium chloride] here?
A: Its value is “responded well”.

Q: Which “ACTH secretion in response to CRH” value [2] does the source give for “CRH: corticotropin releasing hormone, added at 5 μg/ml in the ACTH stimulation test (SEEPPISLDLTFHLLREVLEMARAEQLAQQAHSNRKLMEII; ends and bridges not checked; UniProt P06850 154-194, looked up)” here?
A: Its value is “ACTH was secreted in response to CRH”.

B1: BMP4: bone morphogenetic protein signal transduction pathway activating substance; a known cytokine (protein, UniProt P12644 293-408, looked up)
Bone morphogenetic protein 4: SPKHHSQRARKKNKNCRRHSLYVDFSDVGWNDWIVAPPGYQAFYCHGDCPFPLADHLNSTNHAIVQTLVNSVNSSIPKACCVPTELSAISMLYLDEYDKVVLKNYQEMVVEGCGCR
Q: B1 was tested. Which marker expression (human ES cells (KhES-1); about 3.0 nM from Day 6, KSR-containing gfCDM) did it give?
A: Its marker expression is “Rx as a hypothalamic marker and Pax6 as a dorsal marker became co-positive; also recorded: the retinal marker Chx10 also became positive”.
